This test concerns TFEB. The test can be described thus: TFEB nuclear translocation assay, HeLa wt cells. It counts as cell-based. Particulars: 2 hrs compound treatment, Table 1 does not say HeLa wt or TRPML1 KO. In short, it runs like this:
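Using 20× epifluorescence of fixed, anti-TFEB-stained HeLa wt cells treated 2 hrs with compound, nuclear versus perinuclear ring intensity was quantified over four fields per well, yielding AC50 values.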

The text below walks through data of patent US20230104936A1, “TRPML MODULATORS” (Casma Therapeutics, Inc., priority 2019, published 2023).

As usually defined, the AC50 is the concentration at which the activity in the assay is half-maximal.

Molecules are shown by their SMILES.

`CC(c1cccc(F)c1N1CCC(CN2C3CCC2COC3)CC1)S(=O)(=O)c1ccc(C(F)F)cc1` (stereo not drawn) [Compound A-906, 8-{[1-(2-{1-[4-(difluoromethyl)benzenesulfonyl]ethyl}-6-fluorophenyl)piperidin-4-yl]methyl}-3-oxa-8-azabicyclo[3.2.1]octane]: the AC50 (Homo sapiens, HeLa, 2 h) is at most 2 µM. Still for that read-out and setting: for `CN(C)S(=O)(=O)c1ccc(S(=O)(=O)Nc2ccccc2N2CCN(c3ccn(C(C)(C)C)n3)CC2)cc1` [Compound A-414, N4-{2-[4-(1-tert-butyl-1H-pyrazol-3-yl)piperazin-1-yl]phenyl}-N1,N1-dimethylbenzene-1,4-disulfonamide] the value was at most 2 µM; for `CN(C)S(=O)(=O)c1ccc(S(=O)(=O)Nc2ccccc2N2CCC(C(=O)C(C)(C)C)CC2)cc1` [Compound A-470, N4-{2-[4-(2,2-dimethylpropanoyl)piperidin-1-yl]phenyl}-N1,N1-dimethylbenzene-1,4-disulfonamide], at most 2 µM; for `CN(C)S(=O)(=O)c1ccc(S(=O)(=O)Nc2ccccc2N2CCN(C(=O)N3CC4CC3C4)CC2)cc1` [Compound A-447], 2.01 to 8 µM. The same measure, in the same setting: the same measure for `COCC1(C)CCN(c2ccccc2NS(=O)(=O)c2cccc(C)c2)CC1` [Compound A-618, N-{2-[4-(methoxymethyl)-4-methylpiperidin-1-yl]phenyl}-3-methylbenzene-1-sulfonamide]: 2.01 to 8 µM; for `C[C@@H]1COC[C@@H](C)N1CC1CN(c2c(F)cccc2NS(=O)(=O)c2ccc(S(=O)(=O)N(C)C)cc2)C1` (stereo in doubt) [Compound A-873, N1-(2-(3-((3,5-dimethylmorpholino)methyl)azetidin-1-yl)-3-fluorophenyl)-N4,N4-dimethylbenzene-1,4-disulfonamide]: at least 10 µM.

`CP(=O)(Nc1ccccc1N1CCC(c2ccc(Cl)cc2F)CC1)c1ccccc1` (stereo not drawn) [Compound A-66, 4-(4-chloro-2-fluorophenyl)-1-(2-{[methyl(phenyl)phosphoryl]amino}phenyl)piperidine] returned an AC50 (Homo sapiens, HeLa, 2 h) of at least 10 µM. Same read-out and setting: the same measure for `CN1CC2(CCN(c3ccccc3NS(=O)(=O)c3ccc(S(C)(=O)=O)cc3)CC2)c2ncccc21` [Compound A-320, 4-methanesulfonyl-N-(2-{1′-methyl-1′,2′-dihydrospiro[piperidine-4,3′-pyrrolo[3,2-b]pyridin]-1-yl}phenyl)benzene-1-sulfonamide; formic acid]: at least 10 µM.

Regarding `Cc1ccc(S(=O)(=O)Nc2cccc(F)c2N2CCC(CN3C4COCC3C4)CC2)cc1` [Compound A-889, N-{3-fluoro-2-[4-({3-oxa-6-azabicyclo[3.1.1]heptan-6-yl}methyl)piperidin-1-yl]phenyl}-4-methylbenzene-1-sulfonamide], under “Homo sapiens, HeLa, 2 h”, the AC50 was 2.01 to 8 µM. On the same count and under the same terms, the same measure for `CN1CC2(CCC(c3ccccc3NS(=O)(=O)c3ccc(S(=O)(=O)N(C)C)cc3)CC2)c2ccc(F)cc21` (stereo not drawn) [Compound A-305, N1-(2-(6′-fluoro-1′-methylspiro[cyclohexane-1,3′-indolin]-4-yl)phenyl)-N4,N4-dimethylbenzene-1,4-disulfonamide]: 2.01 to 8 µM; for `COc1ccc(S(=O)(=O)Nc2cccnc2N2CCN(c3ccc(C#N)cc3F)CC2)cc1` [Compound A-117, N-{2-[4-(4-cyano-2-fluorophenyl)piperazin-1-yl]pyridin-3-yl}-4-methoxybenzene-1-sulfonamide]: at least 10 µM; for `CC(C)(C)C(=O)N1CCN(c2ccccc2NS(=O)(=O)C2CCc3ccccc3C2)CC1` (stereo not drawn) [Compound A-583, N-{2-[4-(2,2-dimethylpropanoyl)piperazin-1-yl]phenyl}-1,2,3,4-tetrahydronaphthalene-2-sulfonamide]: at least 10 µM. On the same count and under the same terms, for `Cc1ccc(CS(=O)(=O)Nc2ccccc2N2CCC3(CC2)COC(C)(C)C3)c(F)c1` [Compound A-688, N-(2-{3,3-dimethyl-2-oxa-8-azaspiro[4.5]decan-8-yl}phenyl)-1-(2-fluoro-4-methylphenyl)methanesulfonamide] the value was 2.01 to 8 µM; for `COc1ccc(S(=O)(=O)Nc2ccccc2-c2ccc(F)cc2F)cc1` [Compound A-167, N-(2′,4′-difluoro-[1,1′-biphenyl]-2-yl)-4-methoxybenzenesulfonamide], 2.01 to 8 µM. Consider `CC(c1cccc(F)c1N1CCOCC1)S(=O)(=O)c1ccc2c(c1)CCS2(=O)=O` (stereo not drawn) [Compound A-957, 5-{1-[3-fluoro-2-(morpholin-4-yl)phenyl]ethanesulfonyl}-2,3-dihydro-1λ^6-benzothiophene-1,1-dione], for which, under “Homo sapiens, HeLa, 2 h”, the AC50 is at least 10 µM. As for `Cc1ccc([S+]([O-])c2ccccc2N2CCC(c3ccc(Cl)cc3F)CC2)cc1` (stereo not drawn) [Compound A-144, 4-(4-chloro-2-fluorophenyl)-1-(2-(p-tolylsulfinyl)phenyl)piperidine], the AC50 (Homo sapiens, HeLa, 2 h) was at least 10 µM. Consider `CC(C)S(=N)(=O)c1ccc(S(=O)(=O)[C@H](C)c2cccc(F)c2N2CCCCC2)cc1` (single isomer, unassigned) [Compound A-923], for which the AC50 (Homo sapiens, HeLa, 2 h) was at least 10 µM. Still for that read-out and setting: for `CN1CC2(CCN(c3ccccc3NS(=O)(=O)c3ccc(S(C)(=O)=O)cc3)CC2)c2cccnc21` [Compound A-348, 4-methanesulfonyl-N-(2-{1′-methyl-1′,2′-dihydrospiro[piperidine-4,3′-pyrrolo[2,3-b]pyridin]-1-yl}phenyl)benzene-1-sulfonamide] the value was 8.01 to 9.99 µM. On the same count and under the same terms, for `CCC(C)c1ccc(S(=O)(=O)Nc2ccccc2N2CCN(C(=O)C(C)(C)C)CC2)cc1` (stereo not drawn) [Compound A-513, 4-(butan-2-yl)-N-{2-[4-(2,2-dimethylpropanoyl)piperazin-1-yl]phenyl}benzene-1-sulfonamide] the value was 2.01 to 8 µM; for `CN(C)S(=O)(=O)c1ccc(S(=O)(=O)Nc2ccccc2N2CCN(C3CCCC3)CC2)cc1` [Compound A-453, N4-[2-(4-cyclopentylpiperazin-1-yl)phenyl]-N1,N1-dimethylbenzene-1,4-disulfonamide], 2.01 to 8 µM. Same read-out and setting: the same measure for `C[C@@H]1CN(CC2CCN(c3c(NS(=O)(=O)c4ccc(S(=O)(=O)N(C)C)cc4)cccc3C(F)F)CC2)C[C@H](C)O1` [Compound A-831, N4-[3-(difluoromethyl)-2-(4-{[(2R,6S)-2,6-dimethylmorpholin-4-yl]methyl}piperidin-1-yl)phenyl]-N1,N1-dimethylbenzene-1,4-disulfonamide]: at most 2 µM; for `Cc1nc(N2CCN(c3ccc(Cl)cc3F)CC2=O)cn1S(=O)(=O)c1ccc(S(=O)(=O)N(C)C)cc1` [Compound A-89, 4-((4-(4-(4-chloro-2-fluorophenyl)-2-oxopiperazin-1-yl)-2-methyl-1H-imidazol-1-yl)sulfonyl)-N,N-dimethylbenzenesulfonamide]: at most 2 µM. With `CC(c1cccc(F)c1N1CCC(C)(C(F)F)CC1)S(=O)(=O)c1ccc(S(=N)(=O)N(C)C)cc1` (single isomer, unassigned) [Compound A-974, 4-((1-(2-(4-(difluoromethyl)-4-methylpiperidin-1-yl)-3-fluorophenyl)ethyl)sulfonyl)-N,N-dimethylbenzenesulfonimidamide], the AC50 was at most 2 µM. For `CC(c1ccccc1N1CCN(C(=O)C(C)(C)C)CC1)S(=O)(=O)c1ccc(S(=O)(=O)N(C)C)cc1` (stereo not drawn) [Compound A-474, 4-(1-{2-[4-(2,2-dimethylpropanoyl)piperazin-1-yl]phenyl}ethanesulfonyl)-N,N-dimethylbenzene-1-sulfonamide], the AC50 (Homo sapiens, HeLa, 2 h) fell in the range of 2.01 to 8 µM.
